Source: patent US8536204B2, “Amides and thioamides as pesticides” (Bayer CropScience AG, priority 2009, dated 2013)

Assays:
[1] = Determination of the logP values (formic acid method) by HPLC; assay type: physicochemical; settings: reversed-phase HPLC column (C 18), pH 3.4, HPLC on reversed-phase column (C 18), acidic range (pH 3.4), 55° C.; Table 1; read-out: logP (HCOOH)
Protocol: 1) Description of Method for Determining the LogP Values (Formic Acid Method)
The logP values reported in the table were determined according to EEC-Directive 79/831 Annex V.A8 by HPLC (High Performance Liquid Chromatography) on a reversed-phase column (C 18). Temperature: 55° C.
Eluents for the determination in the acidic range (pH 3.4):
Eluent A: acetonitrile+1 ml of formic acid/litre. Eluent B: water+0.9 ml of formic acid/litre.
Gradient: from 10% eluent A/90% eluent B to 95% eluent A/5% eluent B in 4.25 min.
The calibration was effected with unbranched alkan-2-ones (with 3 to 16 carbon atoms), whose logP values are known (determination of the logP values on the basis of the retention times by linear interpolation between two successive alkanones). The lambda-max values were determined with reference to the UV spectra from 200 nm to 400 nm in the maxima of the chromatographic signals.

Boophilus microplus = Boophilus microplus test (injection); assay type: in vivo; settings: application rate 20 μg/animal, injected into the abdomen, after 7 days
Protocol: Boophilus Microplus Test (Injection)
Solvent: dimethyl sulphoxide
To produce an appropriate active ingredient formulation, 10 mg of active ingredient is mixed with 0.5 ml of solvent stated and the concentrate is diluted to the desired concentration with solvent. The active ingredient solution is injected into the abdomen (Boophilus microplus); the animals are transferred to dishes and stored in a climate-controlled room. The action is monitored by the laying of fertile eggs.
After 7 days, the efficacy in % is determined. 100% means that no ticks have laid fertile eggs.

[2] = test system: green peach aphid (Myzus persicae); test: Myzus test (spray treatment); assay type: in vivo; settings: 144 h, application rate 500 g/ha, spray on Chinese cabbage leaf slices, after 6 days, read-out: efficacy in % (100% means that all aphids have been killed)
Protocol: Myzus Test (Spray Treatment)
Solvent: • 78 parts by weight of acetone • 1.5 parts by weight of dimethylformamide
(§1) Emulsifier: 0.5 part by weight of alkylaryl polyglycol ether
(§2) To produce an appropriate active ingredient formulation, 1 part by weight of active ingredient is mixed with the amounts of solvent and emulsifier specified and the concentrate is diluted to the desired concentration with emulsifier-containing water.
Chinese cabbage leaf slices (Brassica pekinensis) infested by all stages of the green peach aphid (Myzus persicae) are sprayed with an active ingredient formulation of the desired concentration.
After 6 days, the efficacy in % is determined. 100% means that all aphids have been killed; 0% means that no aphids have been killed.

[3] = test system: larvae of the mustard beetle (Phaedon cochleariae); test: Phaedon test (spray treatment); assay type: in vivo; settings: application rate 500 g/ha, spray on Chinese cabbage leaf slices, after 7 days
Protocol: Phaedon Test (Spray Treatment)
Solvent: • 78.0 parts by weight of acetone • 1.5 parts by weight of dimethylformamide
as §1, §2
Chinese cabbage leaf slices (Brassica pekinensis) are sprayed with an active ingredient formulation of the desired concentration and, after drying, populated with larvae of the mustard beetle (Phaedon cochleariae).
After 7 days, the efficacy in % is determined. 100% means that all beetle larvae were killed; 0% means that no beetle larvae were killed.

Row | chromatographic logP [1] | SMILES | efficacy in % (100% means that no ticks have laid fertile eggs) (Boophilus microplus) | pest or weed control at 500 g/ha [2] | efficacy in % (100% means that all beetle larvae were killed) [3]
1 | 0.56 | O=C(NCCF)c1cnn(-c2cccnc2)c1 [Example 9] | 100% | 100% | 
2 | 1.18 | O=C(NCC(F)(F)F)c1cnn(-c2cccnc2)c1 [Example 3, 1-(pyridin-3-yl)-N-(2,2,2-trifluoroethyl)-1H-pyrazole-4-carboxamide] |  | 100% | 100%
